This is an account of results in patent US10017535B2, “Amphiphilic compounds with neuroprotective properties” (USTAV ORGANICKE CHEMIE A BIOCHEMIE AV CR, v.v.i., priority 2014, dated 2018).

In data set [1] the test system is laboratory mice, strain CD-1. The data set is described as follows: Forced swimming test (antidepressant effect). For Forced Swimming Test Reduced Floating: key: −: the desired effect was not observed; −/+: the desired effect was insufficient; +: the desired effect was observed. The class given is in vivo. On the procedure:
(§1) In the Experimental Part 1 were used adults (30-35 g) male laboratory mice, strain CD-1 from Velaz facility, Czech Republic. Mice were housed in plastic boxes with a 12-hour light cycle (lights on at 7:00 pm). Mice had free access to food and water.
This assay was used to monitor the antidepressant effect. Animals float 6 minutes in acrylic cylinder in water at 24° C. A period of immobility is evaluated. The reduction is a manifestation of anti-depressant properties of drugs.

Data set [2] relates to NMDA lesion of the dorsal hippocampus in rats. The data set is described as follows: Active allothetic place avoidance (AAPA) after bilateral excitotoxic NMDA lesion of dorsal hippocampus. For NMDA lession Improvement in Cognition in AAPA after NMDA Lession: key: −: the desired effect was not observed; −/+: the desired effect was insufficient; +: the desired effect was observed. The class given is in vivo, rat Long-Evans strain. Conditions: for NMDA lession Improvement in Cognition in AAPA after NMDA Lession: 1 mg/kg after NMDA lesion. Here is the method:
In the Experimental Part 2 were used adult (3 months old, 300-400 g) male rat Long-Evans strain. The animals come from herds Institute of Physiology ASCR. The rats were housed in clear plastic boxes with the same light cycle as in mice. Animals had free access to food and water. All experiments were carried out in the light of clay. All experiments were carried out in accordance with the Law on protection of animals against cruelty.
The anesthetized rats were used in operations isoflurane (3.5%, Baxter). To recall excitotoxic lesion of the dorsal hippocampus was applied 0.05 mol·l^−1 solution of NMDA (Sigma-Aldrich) in 0.4 mol·l^−1 phosphate buffer solution prepared by mixing 356 g Na2HPO4.12H2O (Mw358.14) in 4.2 l of distilled water and a solution of 62.4 g NaHPO4. 2H2O (Mw156.01) in 0.8 l of distilled water. The pH of the resulting solution of NMDA was adjusted to 7.4 with NaOH.
In this experiment, the neuroprotective effects were evaluated for amphiphilic steroid compounds. The procedure was performed according to Neuropharmacology 61, 61-68 (2011)
The rats were randomly divided into eleven groups. The control group included operated animals, which were injected by phosphate buffer […] into the hippocampus. In the second group, the animals had NMDA lesions of the hippocampus. The animals of the third group were applied clinically used NMDA antagonist memantine at a dose of 5 mg/kg after NMDA lesion. The other groups were administered the compounds at a dose of 1 mg/kg.
The test was performed in rotating arena with prohibited sector in the form of a circular sector (60°). If the rat entered the sector, its limbs received weak electrical impulse.
Test memory and spatial cognition in rats using AAPA was evaluated over four sessions, which are in healthy rats sufficient to achieve asymptotic level (Behay. Brain. Res. 189, 139-144 (2008)). To evaluate memory and spatial cognition was used data from the fourth session, and the number of entries into the forbidden sector and the maximum avoidance sector. […] After the experiment, the localization of the lesion was histologically verified.
Data were analyzed using the non parametric test of Maim Whitney criteria using the GraphPad. The difference was considered significant for p<0.05, for a non-significant tendency then for 0.05<p<0.075.

For data set [3], the system named is laboratory mice, strain CD-1. Put plainly: Passive avoidance test (aversive motivated memory). Note: key: −: the desired effect was not observed; −/+: the desired effect was insufficient; +: the desired effect was observed. The class given is in vivo. On the procedure:
as §1
Aversive motivated memory test was evaluated on the basis of latency input into the preferred, but unpleasant sensation associated with delivery device.

Data set [4] deals with laboratory mice, strain CD-1. Put plainly: Elevated plus maze (anxiety). It is filed as in vivo. Conditions: vs saline and CDX controls. On the procedure: as §1
Amphiphilic steroid compounds were dissolved in a solution of 3 g (2-hydroxypropyl)-β-cyclodextrin (CDX, Sigma-Aldrich) and 157 mg of citric acid ([…], Sigma-Aldrich) in 30 ml of distilled water, the pH was adjusted to 7.4 using sodium hydroxide (NaOH, Sigma-Aldrich). Thus there were prepared solutions of the four steroids for application rates of 0.1, 1, 10 and 100 mg/kg.
The elevated plus maze (EPM) experiment was used to determine the effect of compounds on anxiety of animals at a dose of 1 mg/kg. Two control groups of animals were used to which was applied physiological saline and CDX solution, respectively. A noncompetitive NMDA receptor antagonist—ketamine (10 mg/kg) was given to a comparative group. The compounds were administered to mice intraperitoneally 30 minutes before testing in the EPM.

Setting [5] is: 1 mg/kg i.p., 30 minutes before testing.
Where [6] appears, read: 1 mg/kg after surgery, vs NMDA group.

For the compound “Pyridinium (3S,3aS,5bR,7aR,9R,11aS,11bS,13aR)-3,11a-dimethylhexadecahydro-1H,3H-naphtho[2′,1′:4,5]indeno[1,7a-c]furan-9-yl 9-sulfate [Compound 124]”, the “Forced Swimming Test Reduced Floating” value in data set [1] is listed as “−”. Also, the “NMDA lession Improvement in Cognition in AAPA after NMDA Lession” value in data set [2] is given as “−”. Besides, the “Passive Avoidance Test No Memory Violation” value in data set [3] is on record as “−/+”.
For the compound `C[C@@]12CCC[C@H]1[C@@H]1CC[C@@H]3C[C@H](OC(=O)[C@@H](N)CCC(=O)O)CC[C@]3(C)[C@H]1CC2` [Compound 130, (4S)-4-Amino-5-(((3R,5R,8S,9S,10S,13S,14S)-10,13-dimethylhexadecahydro-1H-cyclopenta[a]phenanthren-3-yl)oxy)-5-oxopentanoic acid], in data set [4] (setting [5]), the “number of entries into the open arms” value is “significantly increased” and the “total time spent in the open arms” value is reported as “significantly increased”. In addition, in data set [4] (10 mg/kg), the “number of entries into the open arms” value is “not significantly altered” and the “total time spent in the open arms” value is given as “significant increase”. For the same compound, the “Forced Swimming Test Reduced Floating” value in data set [1] is “+”. In data set [1] (1 mg/kg), the “flotation (immobility)” value was “significant decrease” and the “latency to the first flotation” value is “longer latency”. In data set [2] (setting [6]), the “maximum time avoiding the sector, fourth session of AAPA” value was “significantly increased” and the “number of entries into the forbidden sector, fourth session of AAPA” value is recorded as “significant reduction”. Also, in data set [3], the “Passive Avoidance Test No Memory Violation” value was “+”.
Turning to `C[C@@]12CCCCC1[C@@H]1CC[C@@H]3C[C@H](OC(=O)[C@@H](N)CCC(=O)O)CC[C@]3(C)[C@H]1CC2` (stereo partly drawn) [Compound 106, (4S)-4-Amino-5-(((2R,4aS,4bS,6aS,10bS,12aR)-4a,6a-dimethyloctadekahydrochrysen-2-yl)oxy)-5-oxopentanoic acid], in data set [1], the “Forced Swimming Test Reduced Floating” value was “−”. Also, the “NMDA lession Improvement in Cognition in AAPA after NMDA Lession” value in data set [2] was “−”. Besides, the “Passive Avoidance Test No Memory Violation” value in data set [3] is “+”.
